# Reference: patent publication US20040053786A1, “Insecticidal 1,8-naphthalenedicarboxamides” (priority 2000, published 2004)
compound,measurement,value
"CNC(=O)c1cccc2cccc(NC(=O)c3cccs3)c12 [Compound 120, N-methyl 8-[(2-thienyl)carbonylamino]-1-naphthalenecarboxamide]",melting point,215 °C
